Results published in US20240218022A1, “ANTI-VISTA MACROCYCLIC PEPTIDES AND COMPOSITIONS” (BRISTOL-MYERS SQUIBB COMPANY, priority 2022, published 2024).
pIC50: −log10 of the molar value. Read-outs that look alike come from different tables or passages of the source. Positions of bridges follow the written chain, without caps; N, C: chain ends. Non-standard residues stand in square brackets, D forms with d. Residues, ends and D or L forms follow the SMILES beside them. 2Nal = N[C@@H](Cc1ccc2ccccc2c1)C(=O)O; Ahp(2) = CCCCC[C@H](N)C(=O)O; NHexGly = CCCCCCNCC(=O)O; Nle = CCCC[C@H](N)C(=O)O; Orn = NCCC[C@H](N)C(=O)O; Dab = NCC[C@H](N)C(=O)O; Dap = NC[C@H](N)C(=O)O

Target: T1, mouse VISTA (mVISTA) (Mus musculus, UniProt Q9D659)
T1 construct: expressed in transfected cells; host or cells: Human embryonic kidney 293T cells
T1 sequence (Q9D659 33-308): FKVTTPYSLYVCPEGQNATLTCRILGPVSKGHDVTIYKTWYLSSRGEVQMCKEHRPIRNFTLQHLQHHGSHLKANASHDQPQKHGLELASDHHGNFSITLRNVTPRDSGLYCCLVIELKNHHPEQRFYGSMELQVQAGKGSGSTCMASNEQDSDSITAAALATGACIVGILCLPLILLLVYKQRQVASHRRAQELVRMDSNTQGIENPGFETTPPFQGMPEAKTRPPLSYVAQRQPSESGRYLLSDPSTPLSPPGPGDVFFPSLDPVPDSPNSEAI
Assay: Cell-Based Binding High-Content Assay For mVISTA (HC CBA mVISTA)
Details: read-out: HC CBA mVISTA IC50
In short: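 This high-content binding assay uses HEK293T cells expressing murine VISTA, measuring displacement of 2 nM biotinylated peptide by fluorescent streptavidin imaging. IC50 values come from four-parameter logistic fitting.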

[1] = 293T cells expressing mouse VISTA, competition with biotinylated peptide (2 nM)

Row | pIC50 [1] | pIC50 | Compound
1 | 7.45 | – | CCCCCCN1CC(=O)N[C@@H](Cc2ccc(O)cc2)C(=O)N[C@@H](C(C)C)C(=O)NCC(=O)N[C@@H](CCCNC(=N)N)C(=O)N[C@@H](CC(C)C)C(=O)N[C@@H](CCCCC)C(=O)N2CCC[C@H]2C(=O)N[C@@H](C(C)C)C(=O)N[C@@H](CC(=O)O)C(=O)N[C@H](C(=O)N[C@@H](CO)C(=O)N[C@@H](CN)C(=O)N[C@@H](CCC(N)=O)C(=O)O)CSCC(=O)N[C@@H](Cc2ccc3ccccc3c2)C(=O)N[C@@H](Cc2ccc(O)cc2)C(=O)N[C@@H](CC(=O)O)C1=O [Example 1162] ({CH2CO}-[2Nal]YD[NHexGly]YVGRL[Ahp(2)]PVDCS[Dap]Q-OH; thioether N-14)
2 | 7.65 | – | CCCCCCN1CC(=O)N[C@@H](Cc2ccc(O)cc2)C(=O)N[C@@H](C(C)C)C(=O)NCC(=O)N[C@@H](CCCNC(=N)N)C(=O)N[C@@H](CC(C)C)C(=O)N[C@@H](CCCCC)C(=O)N2CCC[C@H]2C(=O)N[C@@H](C(C)C)C(=O)N[C@@H](CC(=O)O)C(=O)N[C@H](C(=O)N[C@@H](CO)C(=O)N[C@@H](CCCCN)C(=O)N[C@@H](CC(N)=O)C(=O)O)CSCC(=O)N[C@@H](Cc2ccc3ccccc3c2)C(=O)N[C@@H](Cc2ccc(O)cc2)C(=O)N[C@@H](CC(=O)O)C1=O [Example 1163] ({CH2CO}-[2Nal]YD[NHexGly]YVGRL[Ahp(2)]PVDCSKN-OH; thioether N-14)
3 | 8.01 | – | CCCCCCN1CC(=O)N[C@@H](Cc2ccc(O)cc2)C(=O)N[C@@H](C(C)C)C(=O)NCC(=O)N[C@@H](CCCNC(=N)N)C(=O)N[C@@H](CC(C)C)C(=O)N[C@@H](CCCCC)C(=O)N2CCC[C@H]2C(=O)N[C@@H](C(C)C)C(=O)N[C@@H](CC(=O)O)C(=O)N[C@H](C(=O)N[C@@H](CO)C(=O)N[C@@H](CCN)C(=O)N[C@@H](CC(N)=O)C(=O)O)CSCC(=O)N[C@@H](Cc2ccc3ccccc3c2)C(=O)N[C@@H](Cc2ccc(O)cc2)C(=O)N[C@@H](CC(=O)O)C1=O [Example 1164] ({CH2CO}-[2Nal]YD[NHexGly]YVGRL[Ahp(2)]PVDCS[Dab]N-OH; thioether N-14)
4 | 7.55 | – | CCCCCCN1CC(=O)N[C@@H](Cc2ccc(O)cc2)C(=O)N[C@@H](C(C)C)C(=O)NCC(=O)N[C@@H](CCCNC(=N)N)C(=O)N[C@@H](CC(C)C)C(=O)N[C@@H](CCCCC)C(=O)N2CCC[C@H]2C(=O)N[C@@H](C(C)C)C(=O)N[C@@H](CC(=O)O)C(=O)N[C@H](C(=O)N[C@@H](CO)C(=O)N[C@@H](CCCCN)C(=O)N[C@@H](CCC(N)=O)C(=O)O)CSCC(=O)N[C@@H](Cc2ccc3ccccc3c2)C(=O)N[C@@H](Cc2ccc(O)cc2)C(=O)N[C@@H](CC(=O)O)C1=O [Example 1165] ({CH2CO}-[2Nal]YD[NHexGly]YVGRL[Ahp(2)]PVDCSKQ-OH; thioether N-14)
5 | 7.73 | – | CCCCCCN1CC(=O)N[C@@H](Cc2ccc(O)cc2)C(=O)N[C@@H](C(C)C)C(=O)NCC(=O)N[C@@H](CCCNC(=N)N)C(=O)N[C@@H](CC(C)C)C(=O)N[C@@H](CCCCC)C(=O)N2CCC[C@H]2C(=O)N[C@@H](C(C)C)C(=O)N[C@@H](CC(=O)O)C(=O)N[C@H](C(=O)N[C@@H](CO)C(=O)N[C@@H](CCN)C(=O)N[C@@H](CCC(N)=O)C(=O)O)CSCC(=O)N[C@@H](Cc2ccc3ccccc3c2)C(=O)N[C@@H](Cc2ccc(O)cc2)C(=O)N[C@@H](CC(=O)O)C1=O [Example 1166] ({CH2CO}-[2Nal]YD[NHexGly]YVGRL[Ahp(2)]PVDCS[Dab]Q-OH; thioether N-14)
6 | – | 7.91 | CCCCCCN1CC(=O)N[C@@H](Cc2ccc(O)cc2)C(=O)N[C@@H](CCCC)C(=O)N[C@@H](CC(=O)O)C(=O)N[C@@H](CCCNC(=N)N)C(=O)N[C@@H](CC(C)C)C(=O)N[C@@H](CCCCC)C(=O)N2CCC[C@H]2C(=O)N[C@@H](C(C)C)C(=O)N[C@@H](CC(=O)O)C(=O)N[C@H](C(=O)N[C@@H](CC(=O)O)C(N)=O)CSCC(=O)N[C@@H](Cc2ccccc2)C(=O)N[C@@H](Cc2c[nH]c3ccccc23)C(=O)N[C@@H](CC(=O)O)C1=O [Example 1352] ({CH2CO}-FWD[NHexGly]Y[Nle]DRL[Ahp(2)]PVDCD-NH2; thioether N-14)
7 | – | 7.95 | CCCCCCN1CC(=O)N[C@@H](Cc2ccc(O)cc2)C(=O)N[C@@H](CCCC)C(=O)N[C@@H](CC(=O)O)C(=O)N[C@@H](CCCN)C(=O)N[C@@H](CC(C)C)C(=O)N[C@@H](CCCCC)C(=O)N2CCC[C@H]2C(=O)N[C@@H](C(C)C)C(=O)N[C@@H](CC(=O)O)C(=O)N[C@H](C(=O)N[C@@H](CC(=O)O)C(N)=O)CSCC(=O)N[C@@H](Cc2ccccc2)C(=O)N[C@@H](Cc2c[nH]c3ccccc23)C(=O)N[C@@H](CC(=O)O)C1=O [Example 1353] ({CH2CO}-FWD[NHexGly]Y[Nle]D[Orn]L[Ahp(2)]PVDCD-NH2; thioether N-14)
8 | – | 7.69 | CCCCCCN1CC(=O)N[C@@H](Cc2ccc(O)cc2)C(=O)N[C@@H](CCCCC)C(=O)N[C@@H](CC(N)=O)C(=O)N[C@@H](CCCNC(=N)N)C(=O)N[C@@H](CC(C)C)C(=O)N[C@@H](CCCCC)C(=O)N2CCC[C@H]2C(=O)N[C@@H](C(C)C)C(=O)N[C@@H](CO)C(=O)N[C@H](C(=O)NCC(N)=O)CSCC(=O)N[C@@H](Cc2ccccc2)C(=O)N[C@@H](Cc2c[nH]c3ccccc23)C(=O)N[C@@H](CC(=O)O)C1=O [Example 1354] ({CH2CO}-FWD[NHexGly]Y[Ahp(2)]NRL[Ahp(2)]PVSCG-NH2; thioether N-14)
9 | – | 7.47 | CCCCCCN1CC(=O)N[C@@H](Cc2ccc(O)cc2)C(=O)N[C@@H](CCCC)C(=O)N[C@@H](CC(=O)O)C(=O)N[C@@H](CCCN)C(=O)N[C@@H](CC(C)C)C(=O)N[C@@H](CCCCC)C(=O)N2CCC[C@H]2C(=O)N[C@@H](C(C)C)C(=O)N[C@@H](CO)C(=O)N[C@H](C(=O)NCC(=O)O)CSCC(=O)N[C@@H](Cc2ccccc2)C(=O)N[C@@H](Cc2c[nH]c3ccccc23)C(=O)N[C@@H](CC(=O)O)C1=O [Example 1355] ({CH2CO}-FWD[NHexGly]Y[Nle]D[Orn]L[Ahp(2)]PVSCG-OH; thioether N-14)
10 | – | 7.54 | CCCCCCN1CC(=O)N[C@@H](Cc2ccc(O)cc2)C(=O)N[C@@H](CCCC)C(=O)N[C@@H](CC(=O)O)C(=O)N[C@@H](CCCNC(=N)N)C(=O)N[C@@H](CC(C)C)C(=O)N[C@@H](CCCCC)C(=O)N2CCC[C@H]2C(=O)N[C@@H](C(C)C)C(=O)N[C@@H](CO)C(=O)N[C@H](C(=O)NCC(=O)O)CSCC(=O)N[C@@H](Cc2ccccc2)C(=O)N[C@@H](Cc2c[nH]c3ccccc23)C(=O)N[C@@H](CC(=O)O)C1=O [Example 1356] ({CH2CO}-FWD[NHexGly]Y[Nle]DRL[Ahp(2)]PVSCG-OH; thioether N-14)
11 | – | 7.50 | CCCCCCN1CC(=O)N[C@@H](Cc2ccc(O)cc2)C(=O)N[C@@H](CCCCC)C(=O)N[C@@H](CC(N)=O)C(=O)N[C@@H](CCCNC(=N)N)C(=O)N[C@@H](CC(C)C)C(=O)N[C@@H](CCCCC)C(=O)N2CCC[C@H]2C(=O)N[C@@H](C(C)C)C(=O)N[C@@H](CO)C(=O)N[C@H](C(=O)NCC(=O)O)CSCC(=O)N[C@@H](Cc2ccccc2)C(=O)N[C@@H](Cc2c[nH]c3ccccc23)C(=O)N[C@@H](CC(=O)O)C1=O [Example 1357] ({CH2CO}-FWD[NHexGly]Y[Ahp(2)]NRL[Ahp(2)]PVSCG-OH; thioether N-14)
